Test results as given in paper PMC9607599, “Dual Targeting Ligands—Histamine H3 Receptor Ligands with Monoamine Oxidase B Inhibitory Activity—In Vitro and In Vivo Evaluation” (Pharmaceutics, 2022).
“And” between values parts separate entries of the source, which are not always exact repeats. Identical values can stand only once. Counter-ions that a name gives are not always drawn. Like-named read-outs stand apart in the source and are kept apart here.

Experiments:
[1] = biological target: T1, human histamine H3 receptor (hH3R) (Homo sapiens, UniProt Q9Y5N1); experiment: [3H]Nα-methylhistamine radioligand binding assay in HEK293 cells stably expressing hH3R; design: expressed in transfected cells; conditions: mean within 95% CI of three independent experiments
Method: (§1) Affinity to hH3R stably expressed in CHO-K1 [6] or HEK293 [11] cells was evaluated in a radioligand binding assay as described previously. Briefly, 10 mM stock solutions of the test compounds in DMSO were prepared. Each compound was tested at eight concentrations ranging from 10^−5 to 10^−12 M (final concentration). All assays were carried out in duplicate. […] The radioactivity was counted in MicroBeta 2 [6] or MicroBeta Trilux counter (PerkinElmer). Data were fitted to a one-site curve-fitting equation with Prism 6 (GraphPad Software, San Diego, CA, USA) and Ki values were calculated from IC50 values (from at least three experiments performed in duplicates) according to the Cheng−Prusoff equation [12].
(§2) Affinity for hH3R was evaluated in a radioligand binding assay using [^3H]N^α-methylhistamine as radioligand in CHO K1 or HEK293 cells stably expressing hH3R as described previously. […] Then, those with at least 50% inhibition for hH3R were selected for further testing (Ki evaluation). […] Compounds were tested in the binding assay in HEK293 cells.

human MAO B (hMAO B) [2] = biological target: T2, human MAO B (hMAO B) (Homo sapiens, UniProt P27338); experiment: fluorometric MAO assay (p-tyramine substrate); assay type: biochemical; conditions: for IC50: fluorometric MAO assay, mean ± SEM of 2–4 independent experiments; for inhibition at 1 µM: mean of two independent experiments, read-out: hMAO B % of Inh.
T2 sequence (P27338 1-520): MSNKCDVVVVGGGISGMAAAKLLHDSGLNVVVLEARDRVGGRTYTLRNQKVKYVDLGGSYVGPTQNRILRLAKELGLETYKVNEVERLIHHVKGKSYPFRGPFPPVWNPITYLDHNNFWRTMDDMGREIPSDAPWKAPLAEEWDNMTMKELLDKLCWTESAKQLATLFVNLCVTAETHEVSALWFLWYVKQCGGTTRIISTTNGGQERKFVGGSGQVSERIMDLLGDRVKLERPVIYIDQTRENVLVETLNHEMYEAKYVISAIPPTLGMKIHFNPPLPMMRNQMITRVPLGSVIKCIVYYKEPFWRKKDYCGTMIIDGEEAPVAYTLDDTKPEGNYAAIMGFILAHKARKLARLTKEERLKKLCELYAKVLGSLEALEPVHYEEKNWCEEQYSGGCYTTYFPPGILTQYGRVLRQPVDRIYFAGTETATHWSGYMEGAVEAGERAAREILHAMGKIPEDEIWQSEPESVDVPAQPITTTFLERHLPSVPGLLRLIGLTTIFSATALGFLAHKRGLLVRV
Method: The precise method was described in [6]. First, compounds 4–32 were screened for hMAO B inhibitory activity at 1 μM concentration by the fluorometric method. Para-tyramine (200 μM) was used as a substrate for the enzyme and safinamide (1 μM) was used as a reference compound. […] Each experiment was performed in duplicate.
All compounds were first screened for hMAO B inhibitory activity at the concentration of 1 μM. […] Based on the results, we selected compounds 9 and 13 for further analysis.

[3] = biological target: T1, human histamine H3 receptor (hH3R); design: expressed in transfected cells; conditions: HEK293 cells; read-out: hH3R Ki [nM] [95%CI]; cited from earlier work
hMAO B = conditions: cited from earlier work
hH3R = conditions: cited from earlier work
[4] = parallel artificial membrane permeability assay (PAMPA); assay type: in vitro ADME; conditions: for Pe (×10^−6cm/s) ± SD: PAMPA, triplicate, breakpoint for permeable compounds Pe ≥ 1.5×10^−6 cm/s
[5] = MTT cell viability test on human astrocytes; assay type: cell-based; conditions: human; 24 h; at 0.15 and 0.25 mg/mL; read-out: decline in cell viability in comparison to the control level
Method: (§3) The studies were performed on a commercially-available astrocyte cell line isolated from human cerebral cortex (ScienCell Research Laboratories, San Diego, CA, USA; Cat no. 1800). The cells (passage 7–8) were seeded into a 96-well plate at an amount of 10,000 cells/well and kept in accordance with the ScienCell Research Laboratories’ protocol, i.e., in astrocyte medium supplemented with 2% fetal bovine serum, 10% astrocyte growth supplement and 1% penicillin/streptomycin solution, in an atmosphere with 5% CO2 at 37 °C. The cells were allowed to grow for 24 h and then treated with increasing concentrations of test compounds (0.01–0.25 mg/mL) for 24 and 72 h. Astrocytes in the medium on each plate (regardless of the factors tested) were used as a positive control.
(§4) The viability of the astrocyte cell line was determined calorimetrically using 3-(4,5-dimethylthazol-2-yl)-2,5-diphenyltetrazolium bromide (MTT; Sigma-Aldrich Chemical Co. Ltd., Saint Louis, MO, USA) as described earlier. […] After the incubation time (24 or 72 h) with examined drugs, 50 μL MTT solution (1 mg/mL) was added to each well of the plate for another 4 h. The method is based on the reduction of a yellow tetrazolium salt (MTT) into purple formazan crystals by mitochondrial succinate-tetrazolium reductase system which is metabolically active in viable cells. At the end of the experiment, the cells were treated with 100 μL dimethyl sulphoxide, which enabled the release of the reaction product.
(§5) The absorbance was measured at 570 nm using a BioTek EL×800 microplate reader (BioTek, Winooski, Vermont, USA) and results were expressed as a percentage of the absorbance measured in control cells. The obtained values were plotted against different concentrations of each compound to calculate the viability inhibition concentration at 50% (IC50) using GraphPad Prism 6.07 (GraphPad Software, Inc., San Diego, CA, USA). The experiment was repeated in quadruplicate.
(§6) For the cytotoxicity assessment in the MTT assays, each test drug was used at 8 concentrations (range: 0.01–0.25 mg/mL).

[6] = tested on: astrocyte cell line isolated from human cerebral cortex; experiment: MTT cell viability test on human astrocytes; assay type: cell-based; conditions: Astrocyte, human astrocytes, MTT
Method: as §3, §4, §5, §6

MAO B = biological target: T3, MAO B (Homo sapiens, UniProt P27338); experiment: reversibility of MAO B inhibition (reactivation by excess p-tyramine, with/without preincubation); assay type: biochemical; conditions: inhibitor at IC80
T3 sequence (P27338 1-520): T2 sequence (P27338 1-520)
Method: The reversibility of the MAO inhibition was tested as described in [6, 7]. […] Two variants of experiment were performed. […] After 22 min, the concentration of the substrate was increased to 200 µM and the signal was measured for 5 h.

human MAO B (hMAO B) [7] = biological target: T2, human MAO B (hMAO B); experiment: modality of hMAO B inhibition (Michaelis-Menten / Lineweaver-Burk); assay type: biochemical
Method: Modality of hMAO B inhibition was evaluated for compounds 9 and 13 and the reference safinamide according to the method described previously. Three concentrations of inhibitors, corresponding to their IC20, IC50 and IC80 values, were used. Each experiment was performed in triplicate. KM and Vmax values were calculated from Michaelis–Menten curves by nonlinear regression from the substrate. Lineweaver–Burk plots were calculated using linear regression in GraphPad Prism 6.07 (GraphPad Software, San Diego, CA, USA).
For testing modality of enzyme inhibition, we used three concentrations of inhibitors that corresponded to their IC20, IC50 and IC80 values. Substrate (p-tyramine) was used at concentrations: 0.05, 0.1, 0.5, 1.0, 1.5 and 2.0 mM.

[8] = biological target: T1, human histamine H3 receptor (hH3R); experiment: [3H]Nα-methylhistamine radioligand binding assay in CHO-K1 cells stably expressing hH3R; design: expressed in transfected cells; host or cells: CHO-K1; conditions: CHO-K1 cells; [3H]Nα-methylhistamine; mean ± SEM of three independent experiments; read-out: hH3R Ki [nM] ± SEM
Method: as §1, §2

[9] = inhibitor at IC20, IC50, IC80, p-tyramine 0.05–2.0 mM

T1 sequence (Q9Y5N1 whole entry): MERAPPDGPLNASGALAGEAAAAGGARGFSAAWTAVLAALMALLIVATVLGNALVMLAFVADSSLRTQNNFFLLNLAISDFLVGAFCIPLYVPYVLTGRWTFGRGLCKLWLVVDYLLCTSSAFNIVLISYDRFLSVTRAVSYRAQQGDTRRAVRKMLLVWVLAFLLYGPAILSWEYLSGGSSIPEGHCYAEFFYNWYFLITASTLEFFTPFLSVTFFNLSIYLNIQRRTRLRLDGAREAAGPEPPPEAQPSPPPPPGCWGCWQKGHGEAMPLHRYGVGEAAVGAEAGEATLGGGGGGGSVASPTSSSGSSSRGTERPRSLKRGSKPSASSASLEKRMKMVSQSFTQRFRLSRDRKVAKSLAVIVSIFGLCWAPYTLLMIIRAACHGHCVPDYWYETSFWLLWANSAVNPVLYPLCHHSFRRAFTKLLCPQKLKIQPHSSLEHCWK

Row | SMILES | Ki [1] | melting point | IC50 (human MAO B (hMAO B) [2]) | Ki (hH3R) | also measured
1 | CCc1ccc(OCCCN2CCCCC2)cc1.O=C(O)C(=O)O [Compound 20, 1-(3-(4-Ethylphenoxy)propyl)piperidine hydrogen oxalate] | 62 nM and 61 nM | 144 to 146 °C | 70 ± 2 nM |  | 
2 | CC1CCCCN1CCCOc1ccc(C(C)(C)C)cc1 (stereo not shown) [Compound 10, 1-(3-(4-(tert-Butyl)phenoxy)propyl)-2-methylpiperidine hydrogen oxalate] |  |  |  |  | Ki [3]: < 100 nM
3 | CC(=O)c1ccc(OCCCN2CCCCC2)cc1.O=C(O)C(=O)O [Compound 18, 1-(4-(3-(Piperidin-1-yl)propoxy)phenyl)ethan-1-one hydrogen oxalate] | 15 nM | 157 to 159 °C |  |  | inhibition at 1 µM (human MAO B (hMAO B) [2]): 19%
4 | CCC(C)(C)c1ccc(OCCCN2CCCC2)cc1 [Compound 3] |  |  |  | 63 nM | IC50 (hMAO B): 4.5 nM
5 | Fc1ccc(OCCCN2CCCCC2)cc1.O=C(O)C(=O)O [Compound 22, 1-(3-(4-Fluorophenoxy)propyl)piperidine hydrogen oxalate] | > 80 nM and 93 nM | 132 to 136 °C |  |  | inhibition at 1 µM (human MAO B (hMAO B) [2]): 29%
6 | O=C(c1ccc(OCCCc2cnc[nH]2)cc1)C1CC1 [ciproxifan] |  |  |  | 46 nM | IC50 (hMAO B): 2000 nM
7 | O=C1/C(=C/c2ccc(OCCCN3CCCCC3)cc2)Cc2cc(OCc3ccc(Br)cc3)ccc21 [Compound 1] |  |  |  | 6.5 nM | 
8 | Cn1c(=O)c2c(ncn2C)n(C)c1=O [caffeine, reference compound] |  |  |  |  | Pe (×10^−6cm/s) ± SD [4]: 15.1 ×10^−6cm/s
9 | CCCN(CCC)CCCOc1ccc(C(C)(C)C)cc1.O=C(O)C(=O)O [Compound 9, 3-(4-(tert-Butyl)phenoxy)-N,N-dipropylpropan-1-amine hydrogen oxalate] |  | 139 to 142 °C | 2 nM |  | viability at 24 h [5]: > 95%; IC50 ([6]; 24 h incubation, read-out: IC50 24 h): 144 µM and 55 µg/mL; IC50 ([6]; 72 h incubation, read-out: IC50 72 h): 123 µM and 47 µg/mL; effect of 30 min preincubation on inhibition (preincubated vs non-preincubated) (MAO B): did not show differences between the variants; reversibility of MAO B inhibition (MAO B; excess p-tyramine 200 µM): reversible inhibition; permeability in PAMPA, in words [4]: not able to cross the artificial membrane; Pe (×10^−6cm/s) ± SD [4]: ^---- -- ^c; Affinity (free enzyme vs enzyme-substrate complex) (human MAO B (hMAO B) [7]): Free enzyme ≈ enzyme-substrate complex; Mode of inhibition from kinetic values and LB plot (human MAO B (hMAO B) [7]): noncompetitive inhibition; Lines on LB plot (human MAO B (hMAO B) [7]; Lineweaver–Burk double-reciprocal plot): Lines intersect to the left of y-axis directly on x-axis; app. KM (human MAO B (hMAO B) [7]; [9]): No effect ^a; app. Vmax (human MAO B (hMAO B) [7]; [9]): ↓ curvilinearly with ↑ [I]; app. Vmax/app. KM (human MAO B (hMAO B) [7]; [9]): ↓ curvilinearly with ↑ [I]; Ki [8]: 323 ± 73 nM
10 | CC(C)c1ccc(OCCCN2CCCCC2)cc1.O=C(O)C(=O)O [Compound 19, 1-(3-(4-Isopropylphenoxy)propyl)piperidine hydrogen oxalate] | 52 nM | 112 to 115 °C | 21 ± 3 nM |  | 
11 | Clc1ccc(OCCCN2CCCCC2)cc1.O=C(O)C(=O)O [Compound 23, 1-(3-(4-chlorophenoxy)propyl)piperidine hydrogen oxalate] | > 80 nM and 83 nM | 158 to 160 °C | 1060 ± 37 nM |  | 
12 | CCC(C)(C)c1ccc(OCCCN2CCCCC2)cc1 [DL77] |  |  |  | 37 nM | IC50 (hMAO B): 19 nM
13 | Cc1ccc(OCCCN2CCCCC2)cc1.O=C(O)C(=O)O [Compound 21, 1-(3-(p-Tolyloxy)propyl)piperidine hydrogen oxalate] | 43 nM | 160 to 162 °C | 755 ± 106 nM |  | 
